Experimental data from patent US8227434B1, “Materials and methods for treating oncological disorders” (H. Lee Moffitt Cancer Center & Research Institute, Inc., priority 2003, dated 2012).

Legend:
[1] = tested on: LR5 cell line; settings: LR5 cell line (Bellamy et al., 1991); cited from earlier work
[2] = tested on: 8226 cells adhered to FN (8226/FN); assay: Alkaline comet assay of melphalan induced DNA crosslinks; format: cell-based, human; settings: 2 h, FIG. 3B
Procedure: (§1) The alkaline comet assay was used to detect melphalan induced DNA crosslinks in 8226 myeloma cells. Cells cultured in suspension or adhered to FN were treated with varying doses of melphalan or vehicle control for two hours. Following drug treatment, single strand breaks were induced, by irradiating appropriate samples at 900 rads (MARK I model 68A irradiator). After drug treatment and irradiation, 5,000 cells were placed in a microcentrifuge tube containing 1 ml cold PBS, and the alkaline comet assay was performed as described by Kent et al. (1995). Fifty images were randomly captured per slide, and images by fluorescence microscopy were quantified using Optimus^R software as previously described (Hazlehurst et al., 2001; Kent et al., 1995).
(§2) The percent crosslinking was calculated as follows:
(§3) The data shown are the means of three independent experiments (n=50 images for each dose of each independent experiment). An analysis of variance (ANOVA) model was used to quantify the relationship between the response variable and the two independent variables.

[3] = tested on: 8226 cells in suspension (8226/SUS); assay: as above; format: cell-based, human; settings: 2 h
Procedure: as §1, §2, §3

[4] = tested on: 8226/LR5 cell line; assay: as above; format: cell-based, human; settings: 2 h, FIG. 3A
Procedure: as §1, §2, §3

[5] = tested on: plasma cells from bone marrow aspirates of myeloma patients; assay: Melphalan-induced apoptosis of patient specimens (TUNEL, kappa/lambda staining); format: cell-based, human; settings: 10 patient specimens
From the text: To determine if CAM-DR occurred in patient specimens as well as myeloma cell lines, a double immunofluorescent assay was developed to simultaneously detect apoptotic plasma cells. After obtaining IRB approved consent, mononuclear cells from bone marrow aspirates obtained from patients with stage II and III myeloma were isolated by ficol-hypaque centrifugation and placed in αMEM media. One million cells/ml were adhered to FN or placed in suspension (0.1% poly-hema coated wells) for 2 hrs in serum free αMEM media. Following two hours of adhesion, fresh media with 15% FBS was added and cells were incubated for an additional 12-16 hrs. Following adhesion overnight, cells were treated with 200 uM melphalan for two hours and extracellular drug was removed and maintained in drug free media for an additional 24 hrs prior to fixation. Plasma cells were identified by either positive kappa or lambda staining (Vector laboratories, Burlingame, Calif.) and apoptotic plasma cells were identified by TUNEL analysis labeling using a commercially available kit (Intergen company, Purchase, N.Y., Cat. S7110). Fluorescence microscopy (Vysis, Downers Grove, Ill.) was used to count 500 total plasma cells per slide. Results following cell adhesion were compared to mononuclear cells exposed to melphalan in suspension culture.

[6] = tested on: 8226 cells; assay: Alkaline comet assay, ICL formation and removal; format: cell-based, human; settings: within 17 hours after maximum ICL formation; 2 h exposure to 25 μM melphalan
Procedure: (§4) The alkaline comet assay was used to detect melphalan induced DNA crosslinks in 8226 and 8226/LR5 myeloma cells (Hazlehurst et al., 2003). To examine the dose response, 2×10^5 cells were treated with 25 μM. 50 μM and 100 μM melphalan or vehicle control for two hours, washed in PBS and cultured in drug-free medium for another three hours culture. After drug treatment, samples were irradiated at 900 rads (MARK I model 68A irradiator). The alkaline comet assay was performed according to the manufacturer's instructions (Travegene). Fifty images per slide were randomly captured by fluorescence microscopy and images were quantified using LAI comet analysis software (Loats Associates, Inc. Westminster, Md.). The percent crosslinking was calculated as follows: Relative crosslinking=(1-(Comet moment drug treated-comet moment control/comet moment 900 rads-comet moment control))×100. To examine the ICL formation and removal, 8226 and LR5 were incubated in 25 μM or 50 μM melphalan and vehicle control, respectively for 2 hours after which they were cultured in drug free medium for various times. Cells were collected at 0 h, 3 h, 8 h and 23 h after 2 h drug treatment to perform the comet assay. […] An analysis of variance (ANOVA) model was used to quantify the relationship between the response variable and the two independent variables.

[7] = tested on: 8226/LR5 cells; assay: Alkaline comet assay, ICL formation and removal; format: cell-based, human; settings: within 17 hours after maximum ICL formation; 2 h exposure to 50 μM melphalan
Procedure: as §4

[8] = tested on: 8226 cells; assay: Cell-cycle analysis (BrDU/PI flow cytometry); format: cell-based, human; settings: 48 h post 10 μM melphalan, 2 hour treatment
Procedure: (§5) To check the melphalan effect on cell cycle progressing, 8226 and LR5 were treated with 10 μM, 25 μM and 50 μM of melphalan and collected at 24 h and 48 h. Cells were then fixed with 70% EtOH at 4° C. overnight; and resuspended with 500 μl of PBS containing 25 μg/ml propidium Iodide (PI) (Sigma, St. Louis, Mo.) and 1.25 mg/ml Rnase A (Invetrogen) and incubated at 37° C. for 30 minutes in the dark. BrDU/PI staining was done as described (Hazlehurst et al., 2000). Briefly, within various of time post-drug treatment, cells were treated with 10 μM Bromodeoxyuridine (BrDU) at 37° C. for 30 mins, fixed in 70% ethanol., denatured (2MHCl) and neutralized (0.1M sodium borate). Cell were stained with anti-BrDU FITC antibody (BD, Phamingen), then resuspended with 500 μl of PBS containing 25 μg/ml propidium Iodide (PI) (Sigma, St. Louis, Mo.) and 1.25 mg/ml Rnase A (Invetrogen) and incubated at 37° C. for 30 mins in the dark. Nuclear staining was analyzed on a FACScan flow cytometer (Becton Dickinson, San Jose, Calif.). Watson (Pragmatic) from FlowJo 4.4.4 was used for DNA content analysis.

[9] = tested on: LR5 cells; assay: Cell-cycle analysis (BrDU/PI flow cytometry); format: cell-based, human; settings: 48 h post 10 μM melphalan, 2 hour treatment
Procedure: as §5

SMILES	effect on resistance to melphalan [1]	percent crosslinking, 8226/FN Mean (SE) ([2]; 25 uM melphalan)	percent crosslinking, 8226/FN Mean (SE) ([2]; 50 uM melphalan)	percent crosslinking, 8226/FN Mean (SE) ([2]; 100 uM melphalan)	percent crosslinking, 8226/SUS Mean (SE) ([3]; 25 uM melphalan, FIG. 3A)	percent crosslinking, 8226/SUS Mean (SE) ([3]; 25 uM melphalan, FIG. 3B)	percent crosslinking, 8226/SUS Mean (SE) ([3]; 50 uM melphalan, FIG. 3B)	percent crosslinking, 8226/SUS Mean (SE) ([3]; 100 uM melphalan, FIG. 3A)	percent crosslinking, 8226/SUS Mean (SE) ([3]; 100 uM melphalan, FIG. 3B)	percent crosslinking, 8226/LR5 Mean (SE) ([4]; 25 uM melphalan)	percent crosslinking, 8226/LR5 Mean (SE) ([4]; 50 uM melphalan)	percent crosslinking, 8226/LR5 Mean (SE) ([4]; 100 uM melphalan)	mean percent apoptosis of plasma cells ([5]; adhered to FN prior to treatment with 200 uM melphalan)	mean percent apoptosis of plasma cells ([5]; maintained in cell suspension, 200 uM melphalan)	removal of ICL [6]	ICL removed [7]	cell cycle effect [8]	cell cycle effect [9]
CCCCS(=N)(=O)CCC(N)C(=O)O (stereo not drawn) [buthionine sulfoximine]	partially reversed resistance to melphalan																	
N[C@@H](Cc1ccc(N(CCCl)CCCl)cc1)C(=O)O [melphalan, Melphalan]		29.11 (0.888) %	47.73 (2.141) %	72.03 (2.09) %	20.31 (9.579) %	22.40 (9.458) %	46.27 (5.850) %	67.31 (4.110) %	70.67 (6.175) %	−4.49 (16.687) %	14.02 (8.648) %	47.32 (9.121) %	27.7%	55.6%	no significant removal of ICL	40%	arrested in G2/M phase	continue cell cycle progression
